Results on 28 compounds are retold here after US9120779B2, “Inhibitors of HCV NS5A” (PRESIDIO PHARMACEUTICALS, INC., priority 2008, dated 2015).

The subject of this assay is HCV genotype 1b replicon in Huh 7 cells. Briefly: HCV replicon assay (luciferase readout, 1b_Huh-Luc/Neo-ET cell line). It counts as cell-based. In a few lines:
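Inhibition expressed as percent of untreated control luciferase signal and fitted to a Hill-slope equation for EC50, with repeat determinations. Compounds were added in triplicate to Huh 7 cells stably expressing the genotype 1b luciferase replicon, with 72 h exposure.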

Where [1] appears, read: Hepatitis C virus, Huh-7, 72 h, read-out: Inhibition of HCV genotype 1b, Table 3, 72 h incubation.
[2] abbreviates: Hepatitis C virus, Huh-7, 72 h, read-out: Inhibition of HCV genotype 1b, Table 1, 72 h incubation.
The mark [3] stands for this setting: Hepatitis C virus, Huh-7, 72 h, read-out: Inhibition of HCV genotype 1b, Table 4, 72 h incubation.
[4] abbreviates: Hepatitis C virus, Huh-7, 72 h, read-out: Inhibition of HCV genotype 1b, Table 5, 72 h incubation.

Where two headings read alike, the source gives them in different places.

Consider `CC(C)(C)OC(=O)N[C@@H](C(=O)N1CCC[C@H]1C(=O)NC1CCN(c2ccc(-c3cnc([C@@H]4CCCN4C(=O)[C@H](NC(=O)OC(C)(C)C)c4ccccc4)[nH]3)cc2F)CC1)c1ccccc1` [compound 453], for which, under setting [1], the EC50 is below 1 nM. On to `CN(C)[C@@H](C(=O)N1CCC[C@H]1c1ncc(C2CCC(c3ccc(-c4cnc([C@@H]5CCCN5C(=O)[C@H](NC(=O)C5CC5)c5ccccc5)[nH]4)cc3)CC2)[nH]1)c1ccccc1` (stereo partly shown) [compound 380], for which the EC50 under setting [2] was below 1 nM. `COC(=O)N[C@H](C(=O)N1CCC[C@H]1c1nc2ccc(-c3ccc(-c4ccc5nc([C@@H]6CCCN6C(=O)[C@@H](NC(=O)OC)C(C)C)[nH]c5c4)nc3)cc2[nH]1)C(C)C` [compound 556]: under setting [3], the EC50 is below 1 nM. As for `CCC(CC)[C@H](NC(=O)OC)C(=O)N1CCC[C@H]1c1ncc(-c2ccc(C34CCC(c5cnc([C@@H]6CCCN6C(=O)[C@@H](NC(=O)OC)C(CC)CC)[nH]5)(CC3)CC4)cc2)[nH]1` [compound 910], the EC50 under setting [4] is below 1 nM. As to `CC(C)[C@@H](NC(=O)N1CCOCC1)C(=O)N1CCC[C@H]1C(=O)N[C@H]1CC[C@@H](c2ccc(-c3cnc([C@@H]4CCCN4C(=O)[C@H](NC(=O)N4CCOCC4)C(C)C)[nH]3)cc2)CC1` [compound 361], the EC50 under setting [2] lay in the range of 10 to 999 nM. With `COC(=O)N[C@H](C(=O)N[C@H](c1ncc(C2CCN(c3c(F)cc(-c4cnc([C@@H]5CCCN5C(=O)[C@@H](NC(=O)OC)C(C)C)[nH]4)cc3F)CC2)[nH]1)C(C)C)C(C)C` [compound 515], the EC50 under setting [1] was below 1 nM. For the compound `COC(=O)N[C@H](C(=O)N1CCC[C@H]1c1ncc(C23CCC(c4ccc(-c5cnc([C@@H]6CCCN6C(=O)[C@@H](C)NC(=O)OC)[nH]5)cc4)(CC2)CC3)[nH]1)C(C)C` [compound 2082], under setting [4], the EC50 was below 1 nM. With `COC(=O)N[C@H](C(=O)N1CCC[C@H]1c1ncc(C23CCC(c4ccc(-c5cnc([C@@H]6CCCN6C(=O)[C@@H](NC(=O)OC6CCOCC6)C(C)C)[nH]5)cc4)(CC2)CC3)[nH]1)C(C)C` [compound 2079], the EC50 under setting [4] lay in the range of 1 to 9.9 nM. As for `CC(C)[C@@H](NC(=O)OC(C)(C)C)C(=O)N1CCC[C@H]1c1ncc(-c2ccc(C3CCC(c4cnc([C@@H]5CCCN5C(=O)[C@H](NC(=O)OC(C)(C)C)C(C)C)[nH]4)CC3)cc2)[nH]1` (stereo partly shown) [compound 366], the EC50 under setting [2] was 10 to 999 nM. With `COC(=O)N[C@@H](C(=O)N1CCC[C@H]1c1ncc(-c2ccc(C34CCC(c5cnc([C@@H]6CCCN6C(=O)[C@@H](NC(=O)N6CCOCC6)C(C)C)[nH]5)(CC3)CC4)cc2)[nH]1)c1ccccc1` [compound 643], the EC50 (read-out: Inhibition of HCV genotype 1b, Table 5, 72 h incubation) fell in the range of 1 to 9.9 nM. On to `O=C(N[C@@H](C(=O)N1CCC[C@H]1C(=O)NC1CCN(c2ccc(-c3cnc([C@@H]4CCCN4C(=O)[C@H](NC(=O)C4CC4)c4ccccc4)[nH]3)cc2F)CC1)c1ccccc1)C1CC1` [compound 456], for which, under setting [1], the EC50 is below 1 nM. As for `COC(=O)N[C@@H](C(=O)N1CCOC[C@H]1c1ncc(-c2ccc(C34CCC(c5cnc([C@@H]6CCCN6C(=O)[C@H](NC(=O)OC)c6ccccc6)[nH]5)(CC3)CC4)cc2)[nH]1)c1ccccc1` [compound 2086], the EC50 under setting [4] is below 1 nM. Consider `O=C(N[C@@H](C(=O)N1CCC[C@H]1c1ncc(-c2ccc(C34CCC(c5cnc([C@@H]6CCCN6C(=O)[C@H](NC(=O)C6CC6)c6ccccc6)[nH]5)(CC3)CC4)cc2)[nH]1)c1ccccc1)C1CC1` [compound 607], for which, under setting [4], the EC50 was below 1 nM. Same read-out and setting: the figure for `COC(=O)N[C@@H](C(=O)N1CCC[C@H]1c1ncc(C23CCC(c4ccc(-c5cnc([C@@H]6CCCN6C(=O)[C@@H](c6ccccc6)N(C)C)[nH]5)cc4)(CC2)CC3)[nH]1)c1ccccc1` [compound 622] is below 1 nM; for `COC(=O)N[C@H](C(=O)N1CCC[C@H]1c1ncc(-c2ccc(C34CCC(c5cnc([C@@H]6CCCN6C(=O)[C@H](NC(=O)N6CC[C@@H](O)C6)c6ccccc6)[nH]5)(CC3)CC4)cc2)[nH]1)C(C)C` [compound 2088] it is below 1 nM. For the compound `CC(C)[C@@H](NC(=O)OC(C)(C)C)C(=O)N1CCC[C@H]1C(=O)N[C@H]1CC[C@H](c2ccc(-c3cnc([C@@H]4CCCN4C(=O)[C@H](NC(=O)OC(C)(C)C)C(C)C)[nH]3)cc2)CC1` [compound 356], the EC50 under setting [2] lay within 10 to 999 nM. As to `COC(=O)N[C@@H](C(=O)N1CCC[C@H]1c1ncc(-c2cc(F)c(N3CCC(c4cnc([C@@H]5CCCCN5C(=O)[C@@H](c5ccccc5)N5CCCCC5)[nH]4)CC3)c(F)c2)[nH]1)c1ccccc1` [compound 496], under setting [1], the EC50 is below 1 nM.

In the case of `COC(=O)N[C@@H](C(=O)N1CCC[C@H]1c1ncc(C23CCC(c4ccc(-c5cnc([C@@H]6CCCN6C(=O)[C@@H](c6ccccc6)N6CCCC6)[nH]5)cc4)(CC2)CC3)[nH]1)c1ccccc1` [compound 623], the EC50 under setting [4] was below 1 nM. As for `CC[C@H](C)[C@H](NC(=O)OC)C(=O)N1CCC[C@H]1c1ncc(C23CCC(c4ccc(-c5cnc([C@@H]6CCCN6C(=O)[C@@H](NC(=O)OC)C(C)C)[nH]5)cc4)(CC2)CC3)[nH]1` [compound 2066], the EC50 under setting [4] is below 1 nM.

As for `COC(=O)N[C@H](C(=O)N1CCC[C@H]1c1ncc(-c2ccc(C34CCC(c5cnc([C@@H]6CCCN6C(=O)[C@@H](Nc6ncccn6)C(C)C)[nH]5)(CC3)CC4)cc2)[nH]1)C(C)C` [compound 918], under setting [4], the EC50 was below 1 nM. In the case of `COC(=O)N[C@@H](C(=O)N1CCC[C@H]1c1ncc(-c2ccc(C34CCC(c5cnc([C@@H]6CCCN6C(=O)[C@H](OC)c6ccccc6)[nH]5)(CC3)CC4)cc2)[nH]1)c1ccccc1` [compound 615], the EC50 under setting [4] is below 1 nM. Turning to `COC(=O)N[C@@H](C(=O)N1CCC[C@H]1c1ncc(-c2cc(F)c(N3CCC(c4cnc([C@@H]5CCCN5C(=O)[C@H](NC(=O)N5CCOCC5)c5ccccc5)[nH]4)CC3)c(F)c2)[nH]1)c1ccccc1` [compound 473], the EC50 (read-out: Inhibition of HCV genotype 1b, Table 3, 72 h incubation) was below 1 nM. Take `CC(C)[C@H](NC(=O)N1CC[C@H](O)C1)C(=O)N1CCC[C@H]1c1ncc(-c2ccc(C34CCC(c5cnc([C@@H]6CCCN6C(=O)[C@@H](NC(=O)N6CC[C@H](O)C6)C(C)C)[nH]5)(CC3)CC4)cc2)[nH]1` [compound 635]: the EC50 under setting [4] was below 1 nM. Consider `COC(=O)N[C@@H](C(=O)N1CCC[C@H]1c1ncc(-c2ccc(N3CCC(c4cnc([C@@H]5CCCN5C(=O)[C@H](NC(=O)OC)c5ccccc5)[nH]4)CC3)c(F)c2)[nH]1)c1ccccc1` [compound 452], for which the EC50 under setting [1] is below 1 nM. Take `COC(=O)N[C@H](C(=O)N1CCC[C@H]1c1nc2ccc(-c3ccc(-c4ccc5nc([C@@H]6CCCN6C(=O)[C@@H](NC(=O)OC)[C@@H](C)OC)[nH]c5c4)cc3)cc2[nH]1)[C@@H](C)OC` [compound 555]: the EC50 under setting [3] was below 1 nM. With `COC(=O)N[C@H](C(=O)N1CCC[C@H]1c1ncc(-c2ccc(C34CCC(c5cnc([C@@H]6CCCN6C(=O)[C@H](NC(=O)OC(C)(C)C)c6ccccc6)[nH]5)(CC3)CC4)cc2)[nH]1)C(C)C` [compound 626], the EC50 under setting [4] is below 1 nM. On the same count and under the same terms, the figure for `COC(=O)N[C@H](C(=O)N1CCC[C@H]1c1ncc(-c2ccc(C34CCC(c5cnc([C@@H]6CCCN6C(=O)[C@@H](c6ccccc6)N(C)C)[nH]5)(CC3)CC4)cc2)[nH]1)C(C)C` [compound 2051] is below 1 nM; for `COC(=O)N[C@H](C(=O)N1CCC[C@H]1c1ncc(C23CCC(c4ccc(-c5cnc([C@@H]6CCCN6C(=O)[C@H](NC(=O)N6CCCCC6)C(C)C)[nH]5)cc4)(CC2)CC3)[nH]1)C(C)C` [compound 2075] it is below 1 nM.
